Experimental data reported in the supplement of paper PMC4862054.

Legend:
Experiment in all cases: normalised response (% of control), CellTox Green; higher = less cell death (100 = DMSO, 0 = benzethonium chloride kill control)
Settings in all cases: incubation time: 72 h
[1] = system: MDA-MB-453
Outline: (§1)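 In 384-well plates holding compound at 5 concentrations in 10-fold steps over a 10,000-fold range specific to each compound, breast cancer cell lines were seeded as 20 µl suspension and incubated 72 h. CellTox Green fluorescence was measured at 485/520 nm, after which CellTiter-Glo luminescence was measured following 10 min at room temperature. Plate signals were normalised to 0.1 % DMSO (100) and a positive kill control (0), and each value is the normalised signal at a single concentration.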

[2] = system: MDA-MB-436
Outline: as §1

[3] = system: CAL-51
Outline: as §1

[4] = system: BT-549
Outline: as §1

[5] = system: CAL-148
Outline: as §1

[6] = system: CAL-120
Outline: as §1

[7] = system: HCC1937
Outline: as §1

[8] = system: MCF-10A
Outline: as §1

[9] = system: MFM-223
Outline: as §1

[10] = system: MDA-MB-468
Outline: as §1

[11] = system: CAL-85-1
Outline: as §1

[12] = system: HCC1599
Outline: as §1

[13] = system: HDQ-P1
Outline: as §1

[14] = system: HCC1143
Outline: as §1

[15] = system: DU-4475
Outline: as §1

[16] = system: Hs578T
Outline: as §1

[17] = system: MDA-MB-231
Outline: as §1

[18] = system: BT-474
Outline: as §1

SMILES | normalised response [1] [%] | normalised response [2] [%] | normalised response [3] [%] | normalised response [4] [%] | normalised response [5] [%] | normalised response [6] [%] | normalised response [7] [%] | normalised response [8] [%] | normalised response [9] [%] | normalised response [10] [%] | normalised response [11] [%] | normalised response [12] [%] | normalised response [13] [%] | normalised response [14] [%] | normalised response [15] [%] | normalised response [16] [%] | normalised response [17] [%] | normalised response [18] [%]
O=c1[nH]cc(F)c(=O)[nH]1 [Fluorouracil] (1000 nM) | 87.5 | 101 | 114 | 109 | 98.5 | 105 | 94.5 | 111 | 102 | 96.7 | 101 | 101 | 107 | 110 | 105 | 60.9 | 106 | 101
C[C@@H]1C=C2C(=O)O[C@@H]3CC[C@H](C1)[C@]23O [Galiellalactone] (50000 nM) | 107 | 105 | 96.6 | 98.7 | 103 | 102 | 81.2 | 102 | 106 | 135 | 46.6 | 114 | 92.3 | 112 | 108 | 122 | 121 | 102
COC1=C2C[C@@H](C)C[C@H](OC)[C@H](O)[C@@H](C)/C=C(\C)[C@H](OC(N)=O)[C@@H](OC)/C=C\C=C(/C)C(=O)NC(=CC1=O)C2=O [Geldanamycin] (10000 nM) | 82 | 80.8 | 39.3 | 99 | 54.8 | 75.1 | -41.7 | -24.5 | 44.1 | -27.4 | 3.38 | 99.2 | 65.2 | 99.5 | 68.2 | 98 | 6.32 | 35.9
Cn1cnc2c(F)c(Nc3ccc(Br)cc3F)c(C(=O)NOCCO)cc21 [MEK-162] (100 nM) | 106 | 105 | 103 | 111 | 98.4 | 99.8 | 60.2 | 104 | 91.5 | 139 | 98.2 | 90.6 | 87.6 | 115 | 87.3 | 76.4 | 50.2 | 101
CCOc1cc2ncc(C#N)c(Nc3ccc(OCc4ccccn4)c(Cl)c3)c2cc1NC(=O)/C=C/CN(C)C [Neratinib] (100 nM) | 110 | 97.8 | 115 | 105 | 100 | 106 | 96 | 114 | 103 | 75.7 | 93.7 | 107 | 99.5 | 115 | 106 | 90.3 | 109 | 78.8
CCOc1cc2ncc(C#N)c(Nc3ccc(OCc4ccccn4)c(Cl)c3)c2cc1NC(=O)/C=C/CN(C)C [Neratinib] (1000 nM) | 99.9 | 104 | 95.8 | 101 | 77.3 | 71.7 | 95.7 | 115 | 100 | -68.6 | 54 | 106 | 55.7 | 105 | 94.7 | 120 | 6.81 | 77.1
COC1=CC(c2cc3ccccc3[nH]2)=N/C1=C\c1[nH]c(C)cc1C [Obatoclax] (10000 nM) | 96.2 | 102 | -16.5 | 78.2 | 77.3 | 99.2 | 95.4 | 74.2 | 96.7 | 82.9 | 117 | 99.9 | 102 | 91.9 | 101 | 129 | 0.38 | 94.9
CC(=O)O[C@H]1C(=O)[C@@]2(C)[C@H]([C@H](OC(=O)c3ccccc3)[C@]3(O)C[C@H](OC(=O)[C@H](O)[C@@H](NC(=O)c4ccccc4)c4ccccc4)C(C)=C1C3(C)C)[C@]1(OC(C)=O)CO[C@@H]1C[C@@H]2O [Paclitaxel] (100 nM) | 98.7 | 62.8 | 25.6 | 65.9 | 66.4 | 81.6 | 84.6 | -6.43 | 51.4 | 4.61 | 21.5 | 82.7 | 77.4 | 99.6 | 90.4 | 48.5 | -43 | 49.4
CC(=O)O[C@H]1C(=O)[C@@]2(C)[C@H]([C@H](OC(=O)c3ccccc3)[C@]3(O)C[C@H](OC(=O)[C@H](O)[C@@H](NC(=O)c4ccccc4)c4ccccc4)C(C)=C1C3(C)C)[C@]1(OC(C)=O)CO[C@@H]1C[C@@H]2O [Paclitaxel] (1000 nM) | 92.1 | 49.4 | 38.7 | 56.5 | 86.3 | 82.8 | 71 | 1.34 | 58.8 | -32.9 | 41.7 | 86.6 | 81.5 | 87.3 | 95.4 | 18.5 | -30 | 43.1
Cn1c(=O)c(F)c(Nc2ccc(I)cc2F)c2c(=O)n(C[C@@H](O)CO)cnc21 [TAK-733] (1000 nM) | 109 | 97.9 | 105 | 119 | 98.7 | 87.2 | 102 | 110 | 104 | 87.6 | 41 | 113 | 94.6 | 128 | 70.7 | 38 | 64.2 | 102
